# Results: patent US20230226184A1, “IMPROVEMENTS IN ULTRASOUND-MEDIATED THERAPY” (Bracco Suisse SA, priority 2020, published 2023)
# Assays:
# [1] = test system: mesenteric rat microcirculation; test: Vasospasm inhibition by vasospasm inhibitor pre-treatment before US-MV (Examples 4, 7); format: in vivo; details: for ability to inhibit the vasospasm: Example 7, conditions of Table 6 (P02, US 400 kPa, 5 min); for Vasospasm occurrence (on 3 animals/condition) / Vasospasm occurrence, percent: P02 1.5E+09 MV/kg, 1 bolus, US 400 kPa, 1 ms ON/10 s OFF, 5 min
# Experimental: The model used for these experiments was the mesenteric rat microcirculation. Briefly, anesthetized animals were prepared to allow the visualization of an intestinal loop. The injections were made in the tail vein.
# Rats were placed under the inverted microscope (Olympus® X2) equipped with a X20 objectives (mag final: 200). A numeric camera, driven by an open source software, acquired and recorded 30 s video at each time points required, in accordance with the protocol.
# US treatment was delivered by an experimental single element transducer (unfocused, plane, 1.5 MHz). Table 1 reports the tested US parameters, including the pulse scheme, the acoustic pressure and the duration of US application, for each protocol. The transducer was focus on the optical objective and placed to respect a working distance of 5 cm.
# Image sequences were acquired, before, during and after treatment. Additional acquisitions could be performed every 5 min until 40 min after the initiation of US exposure to monitor the vasospasm resolution.
# The model used for these experiments was the mesenteric rat microcirculation. The model and animal preparation were described in example 2.
# This study aimed at the evaluation of the inhibition of vasospasm induced by a vasospasm inhibitor compound, in particular the dihydropiridine calcium channel blocker nimodipine.
# For this purpose, the rats received a pre-treatment with nimodipine, 10 mins before the combined treatment of gas-filled microvesicles and ultrasound for therapy.
# Nimodipine (Sigma Aldrich, Switzerland) powder was first diluted in DMSO (40 mg/ml); the injected dose (1.4 mg/kg) was extemporary prepared in NaCl 0.9% and injected 10 min before the treatment.
# The treatment parameters were chosen in accordance with the previous studies to obtain the generation of a vasospasm. P01 formulation was administered for this study.
# This study aimed at assessing the efficacy of different pharmacological classes of vasospasm inhibitor drugs currently used in clinic on the vasospasm inhibition.
# The duration between pre-treatment and injection of microvesicles and ultrasound treatment was in accordance with the pharmacocinetik pharmacokinetics and pharmacodynamics of each drug.
# NMU rat tumor model = test: Extravasation of Cy5.5-labeled 150 kDa-dextran in tumour after US-MV treatment (Example 1); format: in vivo
# Experimental: The model used was the NMU rat tumor model. Pre-pubescent rats (female, Sprague Dawley) received a single intra-peritoneal injection of 50 mg/kg of NMU (N-nitroso-N-methylurea, Sigma, Switzerland). Rats developing tumours were enrolled in protocol. In the NMU model, animals can develop several tumours allowing to have tumors receiving microvesicles and ultrasound for therapy; and tumors without ultrasound insonation (called untreated) in the same animal. The rats were anesthetized and placed on dorsal decubitus. A catheter was placed in the tail vein to inject drugs and microvesicles. The US treatment transducer was placed at 5 cm of the tumor (spaced by a water tank). […] To evaluate the efficiency of molecular extravasation, a 150 kDa-dextran labeled with Cy©5.5 fluorophore was injected just before therapeutic treatment with ultrasounds and microvesicles. […] Tumors were then harvested from sacrificed animals; the fluorescence was quantified on image acquired ex vivo (Fluobeam® 700). The fluorescence was quantified by ImageJ software.
# mouse DA3 tumor model = test: Tumour perfusion during US-MV treatment followed by contrast echography (Example 5); format: in vivo; details: Nimodipine 1.4 mg/kg iv 10 min before; P01 1.3E+09 MV/kg, 4 boluses; US 800 kPa, 1 ms ON/15 s OFF, 25 min
# Experimental: The mouse DA3 tumor model was used in these studies. The US treatment was delivered by the Verasonic® system (probe P4-2). The probe was placed at 5 cm from the tumor (spaced by a water tank, filled with degassed water). […] The perfusion of each tumor was followed by the echographic signal of microvesicles (Verasonic® system). The signal was recorded and post-analysed with Vuebox® software. […] The expression “replenishment time” indicates the time required to supply the area under the ultrasound beam with the vessel with fresh gas-filled microvesicles, after the substantial destruction of MV caused by each US pulse. The expression “MV destruction” corresponds to the loss of integrity or structure of MV caused by acoustic activation of MV by US. This can be provoked for example by MV collapse or gas dissolution and monitored by acoustic signal follow up. All parameters relative to microvesicles and ultrasound treatment were fixed (see Table 4). The therapeutic insonation parameters were chosen in accordance with the previous studies, to obtain a vascular permeabilization in the DA3 tumor.
# NMU tumor = test: Tumour perfusion during US-MV treatment followed by contrast echography (Example 6); format: in vivo, rat; details: Nimodipine 1.4 mg/kg iv 10 min before; P02 1.2E+09 MV/kg, 4 boluses; US 600 kPa, 1 ms ON/15 s OFF, 20 min
# Experimental: Pre-pubescent rats (female, Sprague Dawley) received a single intra-peritoneal injection of 50 mg/kg of NMU (N-nitroso-N-methylurea, Sigma, Switzerland). […] Serial bolus injections of gas-filled microvesicles (as specified in Table 5) were performed and the tumor was submitted to therapeutic insonation (frequency, acoustic pressure and pulse characteristics as specified in the subsequent examples). The perfusion of tumor during treatment was assessed as described in Example 5. All parameters relative to microvesicles and ultrasound treatment were fixed (see Table 5). The therapeutic insonation parameters were chosen in accordance with the previous studies, to obtain a vascular permeabilization in the NMU tumor.
# [2] = test system: mesenteric rat microcirculation; test: Vasospasm inhibition by vasospasm inhibitor pre-treatment before US-MV (Examples 4, 7); format: in vivo; details: Nimodipine 1.4 mg/kg, pre-treatment time 10 min; P02 1.5E+09 MV/kg, 1 bolus; US 400 kPa, 1 ms ON/10 s OFF, 5 min
# [3] = Trinitrine (dose not given), pre-treatment time 1 min
# [4] = Mg^2+ 300 mM, pre-treatment time 0 min
# [5] = Prazosin 0.5 mg/kg, pre-treatment time 10 min
smiles,measurement,setting,value
O=[N+]([O-])OCC(CO[N+](=O)[O-])O[N+](=O)[O-] [Trinitrine],ability to inhibit the vasospasm,[1],good ability to inhibit the vasospasm
same,Vasospasm occurrence (on 3 animals/condition),[1]; [3],0/3
same,"Vasospasm occurrence, percent",[1]; [3],(0%)
COCCOC(=O)C1=C(C)NC(C)=C(C(=O)OC(C)C)C1c1cccc([N+](=O)[O-])c1 (stereo not shown) [Nimodipine],"mean fluorescence value (Cy5.5 dextran in tumour, ex vivo)","NMU rat tumor model; fifth group: VI pre-administration (Nimodipine 1.4 mg/kg, 10 min before) then US-MV, 600 kPa, 1 ms ON/10 s OFF, 20 min",2060 RFU/px/ms
same,"mean fluorescence signal (Cy5.5 dextran in tumour, ex vivo)","NMU rat tumor model; third group: VI+MV, no US, Nimodipine 1.4 mg/kg 10 min before, MV P02 or Definity 8 μl gas/kg in 4 boluses",1030 RFU/px/ms
same,"Decrease of perfusion in tumor, percent",mouse DA3 tumor model,0%
same,"Decrease of perfusion in tumor, percent",NMU tumor,(100%)
same,Vasospasm occurrence (on 3 animals/condition),[2],0/3
same,"Vasospasm occurrence, percent",[2],100%
"[Mg+2] [Mg^2+, magnesium]",ability to inhibit the vasospasm,[1],good ability to inhibit the vasospasm
same,Vasospasm occurrence (on 3 animals/condition),[1]; [4],0/3
same,"Vasospasm occurrence, percent",[1]; [4],0%
"C[C@H](CS)C(=O)N1CCC[C@H]1C(=O)O [Captoprill, Captopril]",ability to inhibit the vasospasm,[1],did not show any relevant inhibiting activity
COc1cc2nc(N3CCN(C(=O)c4ccco4)CC3)nc(N)c2cc1OC [Prazosin],ability to inhibit the vasospasm,[1],lower ability
same,Vasospasm occurrence (on 3 animals/condition),[1]; [5],1/3
same,"Vasospasm occurrence, percent",[1]; [5],33%
